Tests used:
[1] = reported catholytes for neutral aqueous RFBs; cited from earlier work
[2] = Stability in air and thermal stability; format: physicochemical
Description: Hexacyano[3] radialene (Na2C6(CN)6), compound 1 in FIG. 3, was synthesized at low temperatures, on a large scale, and in high yield (for example 45 g, 91%). This convenient synthesis uses inexpensive precursors (tetrachlorcyclopropene (TCCP) and malononitrile), reagents (sodium hydride), and solvent (glyme). […] Furthermore, this compound is stable in air, and can be sequentially oxidized in two single-electron transfers. The product of the first oxidation, radical anion the compound ·- is particularly persistent. […] Remarkably, the radical anion is thermally stable to above 180° C. The inherent stability of the compound and persistence of the radical anion ·- signifies that the redox couple is favorable for use in a RFB, a device in which long lifespan is required. Finally, aqueous solutions of the dianion are colorless, while the radical anion produces a deep blue color when dissolved. This is advantageous for visually following the charge-discharge characteristics of proposed RFBs.

[3] = Aqueous solubility by UV/Vis spectroscopy; format: physicochemical; conditions: for Solubility / Radical Anion Solubility: aqueous; for Solubility: dianionic state (disodium salt); for Radical Anion Solubility: radical anionic state
Procedure: One nitrile group was systematically substituted at a time in an effort to preserve the favorable oxidation potential of the redox couple. To this end, a series of asymmetric, ester-substituted, [3] radialene species (FIG. 3, Compounds 1-4) were prepared via the zwitterionic synthetic method. The aqueous solubilities of these compounds in both the dianionic and radical anionic states were determined using UV/Vis spectroscopy (Table 1).

[4] = Cyclic voltammetry in water (GC working electrode, Ag/AgCl reference); format: physicochemical; conditions: for E^ox1/2 / ipc/ipa: in water
Description: FIG. 2A provides cyclic voltammograms of a hexasubstituted radialene dianion ([…]) using a glassy carbon (GC) working electrode, platinum auxiliary electrode, and Ag/AgCl reference electrode measured at various scan rates (10-700 mV/s) in water.
(§1) Hexacyano[3] radialene was initially used as a model system to probe the efficacy of hexasubstituted radialenes as redox couples in pH 7 aqueous solutions. A prerequisite for a practical aqueous catholyte is a high oxidation potential that occurs within the electrochemical window of water. The electrochemistry of [C6(CN)6]^2− as a tetrabutylammonium (TBA) salt in organic solvents only. […] Using cyclic voltammetry (CV), it was first established that the one electron oxidation of the dianion to the radical anion occurs at a potential favorable for use as a catholyte for RFBs, 480 mV.
(§2) This value was almost identical to the diffusion coefficients of hydrophilic ferrocene derivatives in neutral pH solutions of NaCl. […] Such chemical stability is essential for durable RFB electrolytes.

[5] = format: physicochemical
Description: as §1, §2
Diester compound 3 was selected for further analysis due to its favorable solubility in both redox states and its adequate oxidation potential in water. Electrochemical studies of compound 3 were performed to gauge its stability and galvanostatic cycling performance in aqueous solution. […] This assuages concerns of the possibility of ester hydrolysis. Next, a symmetrical H-cell with a cation-exchange membrane separator was used for aqueous galvanostatic charge-discharge experiments (FIG. 4B). The compound 3 undergoes steady cycling over a period of 12 days (50 cycles). […] The higher relative capacity retention was ascribed to the asymmetry and non-planarity of the diester congener, which helps limit dimerization interactions.

[6] = Conductivity of aqueous solutions; format: physicochemical; conditions: for Conductivity: first value of the pair; for Conductivity (value in parentheses): not defined in the patent
[7] = Cyclic voltammetry in water (GC working electrode, Ag/AgCl reference); format: physicochemical; conditions: Randles-Sevcik equation, scan rates 0-700 mV/s

Structure (SMILES)	oxidation potential [1]	stability in air ([2]; dianion compound)	thermal stability of radical anion ([2]; radical anion)	storage of radical anion in air ([2]; radical anion, isolated via chemical oxidation)	Solubility [3]	Radical Anion Solubility [3]	solubility in water ([3]; dianion)	potential of one electron oxidation of dianion to radical anion ([4]; cyclic voltammetry, aqueous pH 7)	E^ox1/2 [4]	ipc/ipa [4]	stability in aqueous solutions ([5]; pH 7)	change in peak current height on standing ([5]; solutions of dianion and radical anion left five days)	Conductivity [6]	Conductivity (value in parentheses) [6]	diffusion coefficient for the electron transfer process [7]	solubility in water ([3]; disodium salt)	stability of dianion in water [5]	conductivity of aqueous solutions without supporting electrolyte ([6]; 0.1 M, without NaCl)
CC1(C)CC(O)CC(C)(C)N1[O] [4-hydroxy-TEMPO]	610 mV																	
N#CC(C#N)=C1C([C-](C#N)C#N)=C1[C-](C#N)C#N.[Na+].[Na+] [Compound 1, Hexacyano[3] radialene (Na2C6(CN)6)]		stable in air	above 180 °C	stored in air indefinitely	<100 mM	<25 mM	25 mM	480 mV	0.48 V	1.03	stable	no significant changes in peak current height	13.2 mS/cm	(0.147) mS/cm	3.71×10^−6 cm^2/s			
COC(=O)C(C#N)=C1C([C-](C#N)C#N)=C1[C-](C#N)C#N.[Na+].[Na+] [Compound 2]					190 mM	80 mM			0.4 V	0.97			15.7 mS/cm	(2.36) mS/cm				
COC(=O)[C-](C#N)C1=C([C-](C#N)C(=O)OC)C1=C(C#N)C#N.[Na+].[Na+] (stereo not drawn) [Compound 3, diester-tetracyano [3] radialene dianion]					450 mM	170 mM			0.35 V	1.06			36.7 mS/cm	(23.2) mS/cm		850 mM	stable in water	sufficiently conductive
COC(=O)C(C#N)=C1C([C-](C#N)C(=O)OC)=C1[C-](C#N)C(=O)OC.[Na+].[Na+] (stereo not drawn) [Compound 4]					820 mM	<25 mM			0.27 V	1.15			39 mS/cm	(0.23) mS/cm				

Reference: patent US12630500B2, “Hexasubstituted radialene compounds and applications thereof” (THE UNIVERSITY OF NORTH CAROLINA AT CHARLOTTE, priority 2019, dated 2026)
